We go through ten compounds from patent US5981577A, “α-methylene peperomins and halogenated derivatives thereof” (Development Center for Biotechnology, priority 1998, dated 1999).

Converted amounts (≈) assume the structure as drawn. Where two headings read alike, the source gives them in different places.

A word on the IC50: it is the concentration needed to halve the response being measured.

One assay concerns COLO 205. In words: in vitro cytotoxicity by the MTT assay, COLO 205. It is filed as cell-based, human. As to the method: (§1) Compounds 1-9 were evaluated for in vitro cytotoxicity by the MTT assay, against four types of human tumor cell lines, including COLO 205, HA22T, SKBR3, and MOLT-4.
(§2) COLO 205 was grown as a monolayer in RPMI 1640 (Gibco) with 10% fetal serum (FBS, Hyclon). HA22T/VGH was grown as a monolayer in DMEM/F12 medium (Gibco) supplemented with 10% FBS and […] nonessential amino acid (Gibco, BRL). SKBr3 was grown as a monolayer in DMEM/F12 medium (Gibco) with 10% FCS and 1% penicillin/streptomycin (Gibco, BRL). MOLT-4 was grown as a suspension cell line in RPMI 1640 supplemented with 10% FCS and 1% penicillin/streptomycin (Gibco, BRL). Exponentially growing cell cultures were maintained in a humidified incubator (NAPCO, Model 5410) with an atmosphere of 5% CO2 -95% air at 37° C.
(§3) In principle, the assay is dependent on the cellular reduction of MTT (Sigma Chemical Co.) by the mitochondrial dehydrogenase of viable cells to a dark blue formazan product. The viable cell number is directly proportional to the production of formazan, which can be measured spectrophotometrically following solubilization.
(§4) Single cell suspensions were obtained by mechanical disaggregation of the floating cell line (MOLT-4) and by trypsinization of the monolayer cultures (COLO 205, HA22T/VGH, SKBr3) and counted by trypan blue exclusion. The cell suspensions (180 μl) were added into 96-well microtiter plates (Nunc 67008) using a multichannel pipette, and the incubation was allowed for 24 h.
(§5) Each test compound was dissolved in a 10% DMSO (Sigma, D-8779) and 90% DPBS solution. 20 μl of this solution was dispensed to each microtiter plate well, and diluted to give final concentrations ranging from 100 μg/ml to 0.01 μg/ml by 10-fold dilutions. The cells were then incubated in the presence of the drug (the test compound) for a further 72 h. At the end of this time, 20 μl of a MTT solution (5 mg/ml) was added to each well and the incubation was allowed a further 4 h. After this time, the culture plates containing suspension lines or any detached cells were centrifuged at a low speed of 1000 rpm for 5 min. 170 μl of the culture medium supernatant was removed from each well and replaced by 200 μl of DMSO. After the solubilization of formazans, the optical density was then read by an automated spectrophotometric plate reader (ELISA, Molecular Device Emax) at a wavelength of 545-690 nm. Readings were transferred to a microcomputer and final reports were generated using especially developed software.
In general terms: Formazan colour is commonly taken as a measure of viable cells.

A further assay deals with HA22T. The experiment in a line: in vitro cytotoxicity by the MTT assay, HA22T. The format is cell-based, human. The note with it: 72 h. The protocol:
as §1, §2, §3, §4, §5

The test system of the next assay is SKBR3. In words: in vitro cytotoxicity by the MTT assay, SKBR3. The format is cell-based, human. As to the method: as §1, §2, §3, §4, §5
A further assay deals with MOLT-4. In words: in vitro cytotoxicity by the MTT assay, MOLT-4. It is filed as cell-based, human. The protocol: as §1, §2, §3, §4, §5
In a further assay the test system is leukemia cells. To be noted: versus other solid tumor cells; cited from earlier work.
Where [1] appears, read: Homo sapiens, COLO 205, MTT, 72 h, read-out: IC50.
Setting [2] is: Homo sapiens, MTT, read-out: IC50.
Setting [3] is: Homo sapiens, SK-BR-3, SKBR3, MTT, 72 h, read-out: IC50.
Where [4] appears, read: Homo sapiens, MOLT-4, MTT, 72 h, read-out: IC50.

As for `C=C1C(=O)OCC1C(c1cc(OC)c(OC)c(OC)c1)c1cc(OC)c(OC)c(OC)c1` (stereo not drawn) [Compound 1, 2-Methylene-3-[bis(3,4,5-trimethoxy)phenyl]methyl γ-butyrolactone], the IC50 came to 2.3 µg/mL (≈ 5.17 µM) with COLO 205 (setting [1]), 7.1 µg/mL (≈ 16 µM) in the assay with HA22T (setting [2]), 4 µg/mL (≈ 9 µM) in the assay on SKBR3 (setting [3]) and 2.8 µg/mL (≈ 6.3 µM) with MOLT-4 (setting [4]).
The like results for `C=C1C(=O)OCC1C(c1ccc2c(c1)OCO2)c1cc(OC)c(OC)c(OC)c1` (stereo not drawn) [Compound 3, 2-Methylene-3-[1-(3,4-methylenedioxy)phenyl-1'-(3,4,5-trimethoxy)phenyl]methyl γ-butyrolactone] were, in that order, 5.8 µg/mL (≈ 14.6 µM), 6.4 µg/mL (≈ 16.1 µM), 4.6 µg/mL (≈ 11.5 µM) and 4.3 µg/mL (≈ 10.8 µM).
For the compound `C=C1C(=O)OCC1C(c1cc(OC)c(OC)c(OC)c1)c1cc(OC)c2c(c1)OCO2` (stereo not drawn) [Compound 7, 2-Methylene-3-[1-(3,4-methylenedioxy-5-methoxy)phenyl-1'-(3,4,5-trimethoxy)phenyl]methyl γ-butyrolactone], the 50% inhibitory concentration (IC50) was 4.4 µg/mL (≈ 10.3 µM) in the assay with COLO 205 (setting [1]), 7.1 µg/mL (≈ 16.6 µM) with HA22T (setting [2]), 4.6 µg/mL (≈ 10.7 µM) in the assay with SKBR3 (setting [3]) and 3 µg/mL (≈ 7 µM) in the assay with MOLT-4 (setting [4]).
For `C=C1C(=O)OCC1C(c1cc(OC)c(OC)c(OC)c1Br)c1cc(OC)c(OC)c(OC)c1Br` (stereo not drawn) [Compound 6, 2-Methylene-3-[bis(2-bromo-3,4,5-trimethoxy)phenyl]methyl γ-butyrolactone], the IC50 in the assay on COLO 205 (setting [1]) amounted to 6.7 µg/mL (≈ 11.1 µM); with HA22T (setting [2]), 5.9 µg/mL (≈ 9.8 µM); in the assay with SKBR3 (setting [3]), 3.7 µg/mL (≈ 6.14 µM); in the assay with MOLT-4 (setting [4]), 4.3 µg/mL (≈ 7.14 µM).
On to `COc1cc(C(c2cc(OC)c3c(c2Br)OCO3)C2COC(=O)C2CBr)c(Br)c(OC)c1OC` (stereo not drawn) [Compound 8, 2-Bromomethyl-3-[1-(2(or 6)-bromo-3,4-methylenedioxy-5-methoxy)phenyl-1'-(2-bromo-3,4,5-trimethoxy)phenyl]methyl γ-butyrolactone], for which the IC50 was determined as 6.1 µg/mL (≈ 9.14 µM) in the assay on COLO 205 (COLO 205, MTT, 72 h); 5.8 µg/mL (≈ 8.69 µM) in the assay on HA22T (MTT); 4.3 µg/mL (≈ 6.45 µM) with SKBR3 (SKBR3, MTT, 72 h); 1.5 µg/mL (≈ 2.25 µM) in the assay with MOLT-4 (MOLT-4, MTT, 72 h).
For “2-Methylene-3-[1-(2(or 6)-bromo-3,4-methylenedioxy)-phenyl-1'-(2-bromo-3,4,5-trimethoxy)phenyl]methyl γ-butyrolactone [Compound 5]”, the IC50 with COLO 205 (COLO 205, MTT, 72 h) came out at 6.8 µg/mL; with HA22T (MTT) it was 5.9 µg/mL; in the assay with SKBR3 (SKBR3, MTT, 72 h) it was 5.3 µg/mL; in the assay on MOLT-4 (MOLT-4, MTT, 72 h), 3.9 µg/mL.
Regarding `COc1cc(C(c2cc(OC)c(OC)c(OC)c2Br)[C@H]2COC(=O)[C@@H]2CBr)c(Br)c(OC)c1OC` (relative stereo) [Compound 2, 2-Bromomethyl-3-[bis(2-bromo-3,4,5-trimethoxy)phenyl]-methyl γ-butyrolactone], the IC50 in the assay with COLO 205 (setting [1]) worked out at 5 µg/mL (≈ 7.32 µM); in the assay with HA22T (setting [2]), 6.6 µg/mL (≈ 9.66 µM); with SKBR3 (setting [3]), 3.7 µg/mL (≈ 5.42 µM); in the assay on MOLT-4 (setting [4]), 3.1 µg/mL (≈ 4.54 µM).
“2-Bromomethyl-3-[1-(2(or 6)-bromo-3,4-methylenedioxy)-phenyl-1'-(2-bromo-3,4,5-trimethoxy)phenyl]methyl γ-butyrolactone [Compound 9]”: the IC50 with COLO 205 (COLO 205, MTT, 72 h) came to 5.6 µg/mL; in the assay on HA22T (MTT) it was 5.7 µg/mL; in the assay on SKBR3 (SKBR3, MTT, 72 h), 4.5 µg/mL; in the assay on MOLT-4 (MOLT-4, MTT, 72 h), 5.8 µg/mL.
`COc1cc(C(c2cc(OC)c(OC)c(OC)c2Br)[C@@H]2COC(=O)[C@@H]2CBr)c(Br)c(OC)c1OC` (relative stereo) [Compound 4, 2-Bromomethyl-3-[bis(2-bromo-3,4,5-trimethoxy)phenyl]-methyl γ-butyrolactone]: the half-inhibitory concentration (IC50) was 4.2 µg/mL (≈ 6.15 µM) in the assay with COLO 205 (setting [1]), 6.4 µg/mL (≈ 9.37 µM) with HA22T (setting [2]), 4.9 µg/mL (≈ 7.17 µM) in the assay on SKBR3 (setting [3]) and 4.9 µg/mL (≈ 7.17 µM) in the assay on MOLT-4 (setting [4]).
For `COc1cccc2c1C(=O)c1c(O)c3c(c(O)c1C2=O)C[C@@](O)(C(=O)CO)C[C@@H]3O[C@H]1C[C@H](N)[C@H](O)[C@H](C)O1` [DOXORUBICIN, reference compound], the IC50 in the assay with COLO 205 (Homo sapiens, COLO 205, 72 h) is 0.2 µg/mL (≈ 0.368 µM); with HA22T (Homo sapiens), 0.2 µg/mL (≈ 0.368 µM); in the assay on SKBR3 (Homo sapiens, SK-BR-3, 72 h), 0.1 µg/mL (≈ 0.184 µM); in the assay with MOLT-4 (Homo sapiens, MOLT-4, 72 h) it was 0.01 µg/mL (≈ 0.0184 µM). Also, the “hypersensitivity to MOLT-4 leukemia cell line” value in the assay with MOLT-4 (as compared to other solid tumor cells) is listed as “hypersensitivity towards leukemia cells as compared to other solid tumor cells”. For the same compound, the “hypersensitivity towards leukemia cells” value with leukemia cells is listed as “hypersensitivity towards leukemia cells versus other solid tumor cells”.
